From patent US20110151020A1, “ACTIVE SUBSTANCE COMBINATION WITH GEMCITABINE FOR THE TREATMENT OF EPITHELIAL CANCER” (priority 2008, published 2011)

How the values were obtained:
[1] = system: CD133+ CXCR4+ CSC subpopulation; assay: Flow cytometry of migrating CSC; format: cell-based, human
pancreatic CSC spheres = assay: CSC-enriched tumour sphere assay; format: cell-based, human; details: ultra low adhesion 6-well plates
Method: First, pancreatic CSC were clonally expanded as CSC-enriched spheres (FIGS. 18C1-18C5). Floating spheres were treated in ultra low adhesion 6-well plates. After completion of the treatment, five randomly selected high-power fields were analyzed.
Human pancreatic cancer cell line. The highly metastatic human pancreatic cell line L3.6pl was maintained in DMEM medium (Invitrogen, Karlsruhe, Germany) with 12% Fetal Calf Serum (Biochrom, Berlin, Germany), Glutamax (Invitrogen), non-essential amino acids, and vitamins (all from PAN, Aidenbach, Germany) (Hermann et al., 2007, supra). Cultures were kept no longer than 4 weeks after recovery from frozen stocks. CSC spheres were cultured in DMEM-F12 supplemented with B27 (Gibco, Karlsruhe, Germany) and FGF-2 (PeproTech EC, London, United Kingdom) (Hermann et al., 2007, supra).

[2] = system: primary human pancreatic cancer cells; assay: CSC content by flow cytometry in primary pancreatic cancer cells from patients; format: cell-based; details: freshly isolated primary pancreatic cancer cells
Method: The findings from Examples 1.1 and 1.2 in tumour cell lines were reproduced in primary patient tissue with viability tested with propidium iodide (FIGS. 4A-4D).
The findings from Examples 2.1 in tumour cell lines were reproduced in fresh primary tumour cells from patients with pancreatic cancer with viability tested with propidium iodide (FIGS. 13A-13D). In vitro treatment with the combined therapy of 100 ng/ml Gemcitabine and 5 μM SB431542 led to the elimination of CD 133^+ cancer stem cells.
Primary human pancreatic cancer cells. Human pancreatic cancers were obtained with written informed consent from all patients. Tissue fragments were minced with scissors into small (1-2 mm^3) fragments. Enzymatic digestion was performed using a mixture of DMEM medium and collagenase (Stem Cell Technologies, Vancouver, Canada) for 90 min at 37° C. (Hermann et al., 2007, supra).
Cytometry. Pancreatic CSC were identified by CD133/1-APC or CD133-PE (Miltenyi, Bergisch-Gladbach, Germany) (Hermann et al., 2007, supra). Side population experiments were performed as described by Goodell et al. (1996) (see Goodell et al., 1996, J Exp Med 183, 1797-1806) and cells were identified by exclusion of the vital dye Hoechst 33342. […]

[3] = system: L3.6pl orthotopic pancreatic tumours; assay: In vivo treatment of established orthotopic pancreatic cancer (Gemcitabine, Cyclopamine, Rapamycin)
Method: Gemcitabine was administered twice a week by intraperitoneal injections at 125 mg/kg BW.
In order to test the identified combination therapy in a clinically most relevant setting, a model of established orthotopic pancreatic cancer was used in this experiment. […] The detailed experimental setup is depicted in FIG. 21A. […] Gemcitabine was given for a prolonged period of 11 weeks in analogy to clinical practice. Tumour volume was non-invasively measured on day 42 using a caliper (FIG. 21B), and was controlled via MR imaging on day 49 (FIG. 21C).
Animals and Orthotopic Implantation of Tumour Cells. Single-cell suspensions were orthotopically implanted into the pancreas of female NMRI nu/nu mice (Janvier, Le Genest-Saint-Isle, France) (Hermann et al., 2007, supra). Size and weight of the pancreatic tumours were monitored.
In vivo treatment of established pancreatic cancers. Seven days after orthotopic implantation of L3.6pl cells, mice were randomized to the respective treatment groups. Gemcitabine was administered biweekly (125 mg/kg i.p.). […] Rapamycin (5 mg/kg/day; Wyeth, Madison, N.J.) was orally administered via the drinking water as reported previously (Huber et al., 2007, supra).

Nc1ccn(C2OC(CO)C(O)C2(F)F)c(=O)n1 (stereo not drawn) [Gemcitabine, 4-amino-1-[3,3-difluoro-4-hydroxy-5-(hydroxymethyl)tetrahydrofuran-2-yl]-1H-pyrimidin-2-one]
CD133+ CXCR4+ migrating CSC [1]: enriches
tumour spheres / CD133+ cells in CSC-enriched spheres (pancreatic CSC spheres): marked relative increase of CD133^+ cells
CSC fraction (CD133+ and CD24+CD44+EpCAM+ populations) [2]: tended to relatively enrich
prolongation of median survival ([3]; Gemcitabine 125 mg/kg i.p. twice a week): 22 days
survival ([3]; Gemcitabine vs control, CRG vs Gemcitabine alone): significantly prolonged
tumour size ([3]; compared to control): significantly smaller compared to control
tumour volume on day 42 (caliper) ([3]; day 42): considerable tumor size
tumour volume via MR imaging on day 49 ([3]; day 49): considerable tumor size
latest day of survival ([3]; mouse, in vivo): ≤ 71 days
median survival ([3]; mouse, in vivo): 57 days
tumour take rate ([3]; mouse, in vivo): 100%
CD133+ cells in the residual tumour tissue ([3]; orthotopic mouse model of xenotransplanted human pancreatic cancer): significant enrichment
